Results on 19 molecules are retold here after US8574563B2 (Bristol-Myers Squibb Company, priority 2006, dated 2013).

The assay relates to HCV 1b-377-neo replicon cells. Put plainly: HCV replicon assay, HCV 1b-377-neo replicon cells (1b FRET). The assay is classed as cell-based, Hepatitis C virus genotype 1b. To be noted: Hepatitis C virus, HCV 1b-377-neo replicon cells; HCV 1b genotype; read-out: EC50 range against HCV 1b (Table 2, Range). The method in brief: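 Compounds tested in HCV genotype 1b-377-neo replicon cells with a FRET read-out. Cells resistant to a reference NS5A inhibitor through a Y2065H NS5A mutation were run alongside wild-type cells.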
In general terms: In antiviral work, replicon cells carry a viral genome segment that copies itself.
By EC50 is commonly meant the concentration at which the effect is half-maximal. As to `O=C(c1ccccc1F)N1CCC[C@H]1c1ncc(-c2ccc(-c3ccc(-c4cnc([C@@H]5CCCN5C(=O)[C@@H](c5ccccc5)N5CCCCC5)[nH]4)cc3)cc2)[nH]1` [Example 107-3, 1-((1R)-2-((2S)-2-(5-(4′-(2-((2S)-1-(2-fluorobenzoyl)-2-pyrrolidinyl)-1H-imidazol-5-yl)-4-biphenylyl)-1H-imidazol-2-yl)-1-pyrrolidinyl)-2-oxo-1-phenylethyl) piperidine], the EC50 was 0.001 to 0.999 nM. For `CN(C)c1ccc(C(=O)N2CCC[C@H]2c2ncc(-c3ccc(-c4ccc(-c5cnc([C@@H]6CCCN6C(=O)[C@@H](c6ccccc6)N6CCCCC6)[nH]5)cc4)cc3)[nH]2)cc1` [Example 107-4, N,N-dimethyl-4-(((2S)-2-(5-(4′-(2-((2S)-1-((2R)-2-phenyl-2-(1-piperidinyl)acetyl)-2-pyrrolidinyl)-1H-imidazol-5-yl)-4-biphenylyl)-1H-imidazol-2-yl)-1-pyrrolidinyl)carbonyl)aniline], the EC50 was in the range of 0.001 to 0.999 nM. Consider `CC(=O)CCC(=O)N1CCC[C@H]1c1ncc(-c2ccc(-c3ccc(-c4cnc([C@@H]5CCCN5C(=O)[C@@H](c5ccccc5)N5CCCCC5)[nH]4)cc3)cc2)[nH]1` [Example 107-5, 5-oxo-5-((2S)-2-(5-(4′-(2-((2S)-1-((2R)-2-phenyl-2-(1-piperidinyl)acetyl)-2-pyrrolidinyl)-1H-imidazol-5-yl)-4-biphenylyl)-1H-imidazol-2-yl)-1-pyrrolidinyl)-2-pentanone], for which the EC50 is 0.001 to 0.999 nM.

Regarding `O=C(C(c1ccccc1)c1ccccc1)N1CCC[C@H]1c1ncc(-c2ccc(-c3ccc(-c4cnc([C@@H]5CCCN5C(=O)[C@@H](c5ccccc5)N5CCCCC5)[nH]4)cc3)cc2)[nH]1` [Example 107-6, 1-((1R)-2-((2S)-2-(5-(4′-(2-((2S)-1-(diphenylacetyl)-2-pyrrolidinyl)-1H-imidazol-5-yl)-4-biphenylyl)-1H-imidazol-2-yl)-1-pyrrolidinyl)-2-oxo-1-phenylethyl) piperidine], the 50% effective concentration (EC50) lay within 0.001 to 0.999 nM.

In the case of `O=C(CCN1CCCCC1)N1CCC[C@H]1c1ncc(-c2ccc(-c3ccc(-c4cnc([C@@H]5CCCN5C(=O)[C@@H](c5ccccc5)N5CCCCC5)[nH]4)cc3)cc2)[nH]1` [Example 107-7, 1-(3-oxo-3-((2S)-2-(5-(4′-(2-((2S)-1-((2R)-2-phenyl-2-(1-piperidinyl)acetyl)-2-pyrrolidinyl)-1H-imidazol-5-yl)-4-biphenylyl)-1H-imidazol-2-yl)-1-pyrrolidinyl)propyl)piperidine], the EC50 fell in the range of 0.001 to 0.999 nM. With `COc1ccccc1OCC(=O)N1CCC[C@H]1c1ncc(-c2ccc(-c3ccc(-c4cnc([C@@H]5CCCN5C(=O)[C@@H](c5ccccc5)N5CCCCC5)[nH]4)cc3)cc2)[nH]1` [Example 107-8, 1-((1R)-2-((2S)-2-(5-(4′-(2-((2S)-1-((2-methoxyphenoxy)acetyl)-2-pyrrolidinyl)-1H-imidazol-5-yl)-4-biphenylyl)-1H-imidazol-2-yl)-1-pyrrolidinyl)-2-oxo-1-phenylethyl) piperidine], the EC50 was in the range of 0.001 to 0.999 nM. As for `CC(C)(C)OC(=O)N1CCC(C(=O)N2CCC[C@H]2c2ncc(-c3ccc(-c4ccc(-c5cnc([C@@H]6CCCN6C(=O)[C@@H](c6ccccc6)N6CCCCC6)[nH]5)cc4)cc3)[nH]2)CC1` [Example 107-9, tert-butyl 4-(((2S)-2-(5-(4′-(2-((2S)-1-((2R)-2-phenyl-2-(1-piperidinyl)acetyl)-2-pyrrolidinyl)-1H-imidazol-5-yl)-4-biphenylyl)-1H-imidazol-2-yl)-1-pyrrolidinyl)carbonyl)-1-piperidinecarboxylate], the figure is 0.001 to 0.999 nM; as for `O=C(c1ccc(N2CCOCC2)cc1)N1CCC[C@H]1c1ncc(-c2ccc(-c3ccc(-c4cnc([C@@H]5CCCN5C(=O)[C@@H](c5ccccc5)N5CCCCC5)[nH]4)cc3)cc2)[nH]1` [Example 107-10, 4-(4-(((2S)-2-(5-(4′-(2-((2S)-1-((2R)-2-phenyl-2-(1-piperidinyl)acetyl)-2-pyrrolidinyl)-1H-imidazol-5-yl)-4-biphenylyl)-1H-imidazol-2-yl)-1-pyrrolidinyl)carbonyl)phenyl) morpholine], 0.001 to 0.999 nM; as for `O=C(c1cscn1)N1CCC[C@H]1c1ncc(-c2ccc(-c3ccc(-c4cnc([C@@H]5CCCN5C(=O)[C@@H](c5ccccc5)N5CCCCC5)[nH]4)cc3)cc2)[nH]1` [Example 107-11, 1-((1R)-2-oxo-1-phenyl-2-((2S)-2-(5-(4′-(2-((2S)-1-(1,3-thiazo1-4-ylcarbonyl)-2-pyrrolidinyl)-1H-imidazol-5-yl)-4-biphenylyl)-1H-imidazol-2-yl)-1-pyrrolidinyl)ethyl)piperidine], 0.001 to 0.999 nM.

As to `CC(C)(C)OC(=O)N1CC(C(=O)N2CCC[C@H]2c2ncc(-c3ccc(-c4ccc(-c5cnc([C@@H]6CCCN6C(=O)[C@@H](c6ccccc6)N6CCCCC6)[nH]5)cc4)cc3)[nH]2)C1` [Example 107-12, tert-butyl 3-(((2S)-2-(5-(4′-(2-((2S)-1-((2R)-2-phenyl-2-(1-piperidinyl)acetyl)-2-pyrrolidinyl)-1H-imidazol-5-yl)-4-biphenylyl)-1H-imidazol-2-yl)-1-pyrrolidinyl)carbonyl)-1-azetidinecarboxylate], the EC50 lay in the range of 0.001 to 0.999 nM. As for `CC(C)(C)OC(=O)N[C@H]1CC[C@@H](C(=O)N2CCC[C@H]2c2ncc(-c3ccc(-c4ccc(-c5cnc([C@@H]6CCCN6C(=O)[C@@H](c6ccccc6)N6CCCCC6)[nH]5)cc4)cc3)[nH]2)CC1` [Example 107-13, tert-butyl (cis-4-(((2S)-2-(5-(4′-(2-((2S)-1-((2R)-2-phenyl-2-(1-piperidinyl)acetyl)-2-pyrrolidinyl)-1H-imidazol-5-yl)-4-biphenylyl)-1H-imidazol-2-yl)-1-pyrrolidinyl)carbonyl)cyclohexyl) carbamate], the concentration for a half-maximal effect (EC50) lay in the range of 0.001 to 0.999 nM. As for `CC(C)(C)OC(=O)N1CCC(C)(C(=O)N2CCC[C@H]2c2ncc(-c3ccc(-c4ccc(-c5cnc([C@@H]6CCCN6C(=O)[C@@H](c6ccccc6)N6CCCCC6)[nH]5)cc4)cc3)[nH]2)CC1` [Example 107-14, tert-butyl 4-methyl-4-(((2S)-2-(5-(4′-(2-((2S)-1-((2R)-2-phenyl-2-(1-piperidinyl)acetyl)-2-pyrrolidinyl)-1H-imidazol-5-yl)-4-biphenylyl)-1H-imidazol-2-yl)-1-pyrrolidinyl)carbonyl)-1-piperidinecarboxylate], the figure is 0.001 to 0.999 nM. Consider `O=C([C@@H](c1ccccc1)N1CCCCC1)N1CCC[C@H]1c1ncc(-c2ccc(-c3ccc(-c4cnc([C@@H]5CCCN5C(=O)C5(C(F)(F)F)CC5)[nH]4)cc3)cc2)[nH]1` [Example 107-15, 1-((1R)-2-oxo-1-phenyl-2-((2S)-2-(5-(4′-(2-((2S)-1-((1-(trifluoromethyl)cyclopropyl)carbonyl)-2-pyrrolidinyl)-1H-imidazol-5-yl)-4-biphenylyl)-1H-imidazol-2-yl)-1-pyrrolidinyl)ethyl)piperidine], for which the half-maximal effective concentration (EC50) lay within 0.001 to 0.999 nM. As for `Cc1cc(CC(=O)N2CCC[C@H]2c2ncc(-c3ccc(-c4ccc(-c5cnc([C@@H]6CCCN6C(=O)[C@@H](c6ccccc6)N6CCCCC6)[nH]5)cc4)cc3)[nH]2)n[nH]1` [Example 107-16, 1-((1R)-2-((2S)-2-(5-(4′-(2-((2S)-1-((5-methyl-1H-pyrazo1-3-yl)acetyl)-2-pyrrolidinyl)-1H-imidazol-5-yl)-4-biphenylyl)-1H-imidazol-2-yl)-1-pyrrolidinyl)-2-oxo-1-phenylethyl) piperidine], the figure is 0.001 to 0.999 nM; as for `O=C([C@@H]1CCN(Cc2ccccc2)C1)N1CCC[C@H]1c1ncc(-c2ccc(-c3ccc(-c4cnc([C@@H]5CCCN5C(=O)[C@@H](c5ccccc5)N5CCCCC5)[nH]4)cc3)cc2)[nH]1` [Example 107-17], 0.001 to 0.999 nM. With `O=C([C@H]1CCN(Cc2ccccc2)C1)N1CCC[C@H]1c1ncc(-c2ccc(-c3ccc(-c4cnc([C@@H]5CCCN5C(=O)[C@@H](c5ccccc5)N5CCCCC5)[nH]4)cc3)cc2)[nH]1` [Example 107-18, 1-((1R)-2-((2S)-2-(5-(4′-(2-((2S)-1-(((3S)-1-benzyl-3-pyrrolidinyl)carbonyl)-2-pyrrolidinyl)-1H-imidazol-5-yl)-4-biphenylyl)-1H-imidazol-2-yl)-1-pyrrolidinyl)-2-oxo-1-phenylethyl) piperidine], the EC50 fell in the range of 0.001 to 0.999 nM.

Consider `CO[C@@H](C(=O)N1CCC[C@H]1c1ncc(-c2ccc(-c3ccc(-c4cnc([C@@H]5CCCN5C(=O)[C@@H](c5ccccc5)N5CCCCC5)[nH]4)cc3)cc2)[nH]1)c1ccccc1` [Example 107-19, 1-((1R)-2-((2S)-2-(5-(4′-(2-((2S)-1-((2R)-2-methoxy-2-phenylacetyl)-2-pyrrolidinyl)-1H-imidazol-5-yl)-4-biphenylyl)-1H-imidazol-2-yl)-1-pyrrolidinyl)-2-oxo-1-phenylethyl) piperidine], for which the EC50 fell in the range of 0.001 to 0.999 nM. As for `CO[C@H](C(=O)N1CCC[C@H]1c1ncc(-c2ccc(-c3ccc(-c4cnc([C@@H]5CCCN5C(=O)[C@@H](c5ccccc5)N5CCCCC5)[nH]4)cc3)cc2)[nH]1)c1ccccc1` [Example 107-20, 1-((1R)-2-((2S)-2-(5-(4′-(2-((2S)-1-((2S)-2-methoxy-2-phenylacetyl)-2-pyrrolidinyl)-1H-imidazol-5-yl)-4-biphenylyl)-1H-imidazol-2-yl)-1-pyrrolidinyl)-2-oxo-1-phenylethyl) piperidine], the figure is 0.001 to 0.999 nM. Regarding `O=C([C@@H](c1ccccc1)N1CCCCC1)N1CCC[C@H]1c1ncc(-c2ccc(-c3ccc(-c4cnc([C@@H]5CCCN5C(=O)C5(c6ccccc6)CC5)[nH]4)cc3)cc2)[nH]1` [Example 107-22, 1-((1R)-2-oxo-1-phenyl-2-((2S)-2-(5-(4′-(2-((2S)-1-((1-phenylcyclopropyl)carbonyl)-2-pyrrolidinyl)-1H-imidazol-5-yl)-4-biphenylyl)-1H-imidazol-2-yl)-1-pyrrolidinyl)ethyl)piperidine], the EC50 lay in the range of 0.001 to 0.999 nM.
